Reference: US20080161320A1, “FUSED BICYCLIC PYRIMIDINES AS PTK INHIBITORS CONTAINING A ZINC BINDING MOIETY” (priority 2006, published 2008)

What was measured:
[1] = tested on: HDAC; experiment: HDAC fluorimetric assay kit (AK-500, Biomol), HeLa nuclear extract; type: biochemical
Method: HDAC inhibitors were screened using an HDAC fluorimetric assay kit (AK-500, Biomol, Plymouth Meeting, Pa.). […] Each assay was setup as follows: Defrosted all kit components and kept on ice until use. […] Prepared dilutions of Trichostatin A (TSA, positive control) and tested compounds in assay buffer (5× of final concentration). Diluted Fluor de Lys™ Substrate in assay buffer to 100 uM (50 fold=2× final). Diluted Fluor de Lys™ developer concentrate 20-fold (e.g. 50 μl plus 950 μl Assay Buffer) in cold assay buffer. Second, diluted the 0.2 mM Trichostatin A 100-fold in the 1× Developer (e.g. 10 μl in 1 ml; final Trichostatin A concentration in the 1× Developer=2 μM; final concentration after addition to HDAC/Substrate reaction=1 μM). Added Assay buffer, diluted trichostatin A or test inhibitor to appropriate wells of the microtiter plate. Added diluted HeLa extract or other HDAC sample to all wells except for negative controls.

[2] = molecular target: T1, human EGFR (Homo sapiens, UniProt P00533); experiment: HTScan Receptor Kinase Assay, EGFR; type: biochemical
T1 construct: human EGFR (His672-Ala1210); GST (N); purchased Cell Signaling Technologies; host or cells: baculovirus expression system
T1 sequence (P00533 672-1210): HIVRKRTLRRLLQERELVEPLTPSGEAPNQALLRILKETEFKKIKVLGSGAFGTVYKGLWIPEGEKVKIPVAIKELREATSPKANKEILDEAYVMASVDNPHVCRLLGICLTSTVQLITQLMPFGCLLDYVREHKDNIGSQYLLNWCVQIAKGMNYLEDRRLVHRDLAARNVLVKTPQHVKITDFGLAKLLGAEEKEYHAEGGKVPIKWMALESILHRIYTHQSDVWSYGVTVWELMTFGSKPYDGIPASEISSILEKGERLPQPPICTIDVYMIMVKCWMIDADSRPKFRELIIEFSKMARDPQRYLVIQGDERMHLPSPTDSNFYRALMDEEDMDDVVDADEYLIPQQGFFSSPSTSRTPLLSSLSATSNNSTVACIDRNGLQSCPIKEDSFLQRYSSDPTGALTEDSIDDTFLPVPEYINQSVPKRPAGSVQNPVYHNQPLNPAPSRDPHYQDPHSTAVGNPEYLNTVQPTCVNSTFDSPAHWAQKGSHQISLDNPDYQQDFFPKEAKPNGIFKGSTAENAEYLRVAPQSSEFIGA

[3] = molecular target: human HER2/ErbB2 (Homo sapiens, UniProt P04626); experiment: HTScan Receptor Kinase Assay, HER2/ErbB2;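 note: europium time-resolved fluorescence detection of anti-phosphotyrosine antibody binding to biotinylated FLT3 (Tyr589) peptide phosphorylated by the kinase, 30 min reaction at room temperature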
Chain of human HER2/ErbB2 (P04626 676-1255): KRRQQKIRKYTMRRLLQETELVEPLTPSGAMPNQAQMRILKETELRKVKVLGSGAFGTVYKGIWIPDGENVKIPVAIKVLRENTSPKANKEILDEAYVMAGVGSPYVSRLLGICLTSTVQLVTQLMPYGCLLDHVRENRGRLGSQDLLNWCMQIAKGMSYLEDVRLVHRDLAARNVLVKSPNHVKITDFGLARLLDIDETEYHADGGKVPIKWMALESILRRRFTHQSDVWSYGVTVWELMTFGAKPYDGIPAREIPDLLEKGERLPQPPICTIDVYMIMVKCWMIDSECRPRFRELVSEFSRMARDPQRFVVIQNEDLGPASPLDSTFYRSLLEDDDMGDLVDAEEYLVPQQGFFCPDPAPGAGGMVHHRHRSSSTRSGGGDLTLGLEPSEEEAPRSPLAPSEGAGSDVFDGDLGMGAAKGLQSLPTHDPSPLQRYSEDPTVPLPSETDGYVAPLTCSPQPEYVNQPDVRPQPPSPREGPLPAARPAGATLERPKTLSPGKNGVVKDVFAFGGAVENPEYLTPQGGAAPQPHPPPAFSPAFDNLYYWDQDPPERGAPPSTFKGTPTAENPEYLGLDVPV
Method: (§1) The ability of compounds to inhibit receptor kinase (EGFR, HER2/ErbB2, and VEGFR2) activity was assayed using HTScan™ Receptor Kinase Assay Kits (Cell Signaling Technologies, Danvers, Mass.). […] VEGFR2 tyrosine kinase was produced using a baculovirus expression system from a construct containing a human VEGFR2 cDNA kinase domain (Asp805-Val1356) (GenBank accession No. AF035121) fragment amino-terminally fused to a GST-HIS6-Thrombin cleavage site. The proteins were purified by one-step affinity chromatography using glutathione-agarose. An anti-phosphotyrosine monoclonal antibody, P-Tyr-100, was used to detect phosphorylation of biotinylated substrate peptides (EGFR, Biotin-PTP1B (Tyr66); HER2/ErbB2, Biotinylated FLT3 (Tyr589); VEGFR2, Biotin-Gastrin Precursor (Tyr87).). […] Fluorescence was measured on a WALLAC Victor 2 plate reader and reported as relative fluorescence units (RFU). Data were plotted using GraphPad Prism (v4.0a) and IC50's calculated using a sigmoidal dose response curve fitting algorithm.
(§2) Each assay was setup as follows: Added 100 μl of 10 mM ATP to 1.25 ml 6 mM substrate peptide. Diluted the mixture with dH20 to 2.5 ml to make 2×ATP/substrate cocktail ([ATP]=400 mM, [substrate]=3 mM). Immediately transfer enzyme from −80° C. to ice. Allowed enzyme to thaw on ice. Microcentrifuged briefly at 4° C. to bring liquid to the bottom of the vial. Returned immediately to ice. […] Transfer 1.25 ml of DTT/Kinase buffer to enzyme tube to make 4× reaction cocktail ([enzyme]=4 ng/μL in 4× reaction cocktail). […] Incubated reaction plate at room temperature for 30 minutes. Added 50 μl/well Stop Buffer (50 mM EDTA, pH 8) to stop the reaction. Transferred 25 μl of each reaction and 75 μl dH2O/well to a 96-well streptavidin-coated plate and incubated at room temperature for 60 minutes. Washed three times with 200 μl/well PBS/T (PBS, 0.05% Tween-20). […] Added 100 μl/well primary antibody. Incubated at room temperature for 60 minutes. Washed three times with 200 μl/well PBS/T. Diluted Europium labeled anti-mouse IgG 1:500 in PBS/T with 1% BSA. Added 100 μl/well diluted antibody. Incubated at room temperature for 30 minutes. Washed five times with 200 μl/well PBS/T. Added 100 μl/well DELFIA® Enhancement Solution. Incubated at room temperature for 5 minutes.

[4] = molecular target: human VEGFR2 (Homo sapiens, UniProt P35968); experiment: HTScan Receptor Kinase Assay, VEGFR2;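 note: recombinant GST-His-tagged human VEGFR2 kinase domain phosphorylating biotinylated gastrin precursor peptide, 30 min at room temperature, phosphotyrosine detected by Europium-labelled antibody time-resolved fluorescence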
Chain of human VEGFR2 (P35968 807-1356 limits assumed): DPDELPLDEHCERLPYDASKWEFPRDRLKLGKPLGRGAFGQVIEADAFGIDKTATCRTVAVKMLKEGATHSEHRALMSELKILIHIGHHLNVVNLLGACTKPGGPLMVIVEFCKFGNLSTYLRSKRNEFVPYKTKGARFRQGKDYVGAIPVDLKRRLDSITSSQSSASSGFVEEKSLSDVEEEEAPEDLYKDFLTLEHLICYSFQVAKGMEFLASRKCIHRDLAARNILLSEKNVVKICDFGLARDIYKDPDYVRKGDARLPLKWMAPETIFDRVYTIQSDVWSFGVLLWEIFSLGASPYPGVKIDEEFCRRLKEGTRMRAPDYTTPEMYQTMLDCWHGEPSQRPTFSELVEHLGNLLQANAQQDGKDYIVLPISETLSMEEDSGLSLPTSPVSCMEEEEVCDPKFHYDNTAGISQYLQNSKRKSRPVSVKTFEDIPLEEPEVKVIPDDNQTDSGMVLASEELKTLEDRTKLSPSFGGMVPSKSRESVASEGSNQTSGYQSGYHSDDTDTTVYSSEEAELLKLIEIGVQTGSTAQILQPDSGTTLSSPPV
Method: as §1, §2

SMILES | IC50 [1] | IC50 [2] | IC50 [3] | IC50 [4]
C[C@@H](Nc1ncnc2[nH]c(-c3ccc(CNCC(=O)NO)cc3)cc12)c1ccccc1 [Compound 1, (R)—N-Hydroxy-2-(4-(4-(1-phenylethylamino)-7H-pyrrolo[2,3-d]pyrimidin-6-yl)benzylamino)acetamide] | 1 to 10 µM | 1 to 10 µM | 1 to 10 µM | 
C[C@@H](Nc1ncnc2[nH]c(-c3ccc(CNCCC(=O)NO)cc3)cc12)c1ccccc1 [Compound 2, (R)—N-Hydroxy-3-(4-(4-(1-phenylethylamino)-7H-pyrrolo[2,3-d]pyrimidin-6-yl)benzylamino)-propanamide] | > 10 µM |  |  | 0.1 to 1 µM
C[C@@H](Nc1ncnc2[nH]c(-c3ccc(CN4CCN(CC(=O)NO)CC4)cc3)cc12)c1ccccc1 [Compound 11, (R)—N-Hydroxy-2-(4-(4-(4-(1-phenylethylamino)-7H-pyrrolo[2,3-d]pyrimidin-6-yl)benzyl)piperazin-1-yl)acetamide] | > 10 µM | < 0.1 µM | < 0.1 µM | < 0.1 µM
C[C@@H](Nc1ncnc2[nH]c(-c3ccc(CN4CCN(CCC(=O)NO)CC4)cc3)cc12)c1ccccc1 [Compound 12, (R)—N-Hydroxy-3-(4-(4-(4-(1-phenylethylamino)-7H-pyrrolo[2,3-d]pyrimidin-6-yl)benzyl)piperazin-1-yl)propanamide] | > 10 µM | < 0.1 µM | < 0.1 µM | 0.1 to 1 µM
C[C@@H](Nc1ncnc2[nH]c(-c3ccc(CN4CCN(CCCC(=O)NO)CC4)cc3)cc12)c1ccccc1 [Compound 13, (R)—N-Hydroxy-4-(4-(4-(4-(1-phenylethylamino)-7H-pyrrolo[2,3-d]pyrimidin-6-yl)benzyl)piperazin-1-yl)butanamide] | 1 to 10 µM | < 0.1 µM | < 0.1 µM | 0.1 to 1 µM
C[C@@H](Nc1ncnc2[nH]c(-c3ccc(CN4CCN(CCCCC(=O)NO)CC4)cc3)cc12)c1ccccc1 [Compound 14, (R)—N-Hydroxy-5-(4-(4-(4-(1-phenylethylamino)-7H-pyrrolo[2,3-d]pyrimidin-6-yl)benzyl)piperazin-1-yl)pentanamide] | 1 to 10 µM | < 0.1 µM | 0.1 to 1 µM | 0.1 to 1 µM
C[C@@H](Nc1ncnc2[nH]c(-c3ccc(CN4CCN(CCCCCC(=O)NO)CC4)cc3)cc12)c1ccccc1 [Compound 15, (R)—N-Hydroxy-6-(4-(4-(4-(1-phenylethylamino)-7H-pyrrolo[2,3-d]pyrimidin-6-yl)benzyl)piperazin-1-yl)hexanamide] | 0.1 to 1 µM |  | 0.1 to 1 µM | 0.1 to 1 µM
C[C@@H](Nc1ncnc2[nH]c(-c3ccc(CN4CCN(CCCCCCC(=O)NO)CC4)cc3)cc12)c1ccccc1 [Compound 16, (R)—N-Hydroxy-7-(4-(4-(4-(1-phenylethylamino)-7H-pyrrolo[2,3-d]pyrimidin-6-yl)benzyl)piperazin-1-yl)heptanamide] | 0.1 to 1 µM | < 0.1 µM | < 0.1 µM | 0.1 to 1 µM
C[C@@H](Nc1ncnc2[nH]c(-c3ccc(OCCCC(=O)NO)cc3)cc12)c1ccccc1 [Compound 19, (R)—N-Hydroxy-4-(4-(4-(1-phenylethylamino)-7H-pyrrolo[2,3-d]pyrimidin-6-yl)phenoxy)propanamide] | 0.1 to 1 µM | < 0.1 µM | 0.1 to 1 µM | 0.1 to 1 µM
C[C@@H](Nc1ncnc2[nH]c(-c3ccc(OCCCCC(=O)NO)cc3)cc12)c1ccccc1 [Compound 20, (R)—N-Hydroxy-5-(4-(4-(1-phenylethylamino)-7H-pyrrolo[2,3-d]pyrimidin-6-yl)phenoxy)pentanamide] | 0.1 to 1 µM | < 0.1 µM | 0.1 to 1 µM | 0.1 to 1 µM
C[C@@H](Nc1ncnc2[nH]c(-c3ccc(OCCCCCC(=O)NO)cc3)cc12)c1ccccc1 [Compound 21, (R)—N-hydroxy-6-(4-(4-(1-phenylethylamino)-7H-pyrrolo[2,3-d]pyrimidin-6-yl)phenoxy)hexanamide] | < 0.1 µM | < 0.1 µM | 0.1 to 1 µM | 1 to 10 µM
C[C@@H](Nc1ncnc2[nH]c(-c3ccc(OCCCCCCC(=O)NO)cc3)cc12)c1ccccc1 [Compound 22, (R)—N-hydroxy-7-(4-(4-(1-phenylethylamino)-7H-pyrrolo[2,3-d]pyrimidin-6-yl)phenoxy)heptanamide] | < 0.1 µM | < 0.1 µM | 0.1 to 1 µM | < 0.1 µM
C[C@@H](Nc1ncnc2[nH]c(-c3ccc(NC(=O)CCC(=O)NO)cc3)cc12)c1ccccc1 [Compound 24, (R) —N^1-Hydroxy-N^4-(4-(4-(1-phenylethylamino)-7H-pyrrolo[2,3-d]pyrimidin-6-yl)phenyl)succinamide] | > 10 µM | < 0.1 µM | 0.1 to 1 µM | 0.1 to 1 µM
C[C@@H](Nc1ncnc2[nH]c(-c3ccc(CN4CCN(CCCCCC(=O)NO)CC4)cc3)cc12)c1ccc(F)cc1 [Compound 35] | 0.1 to 1 µM |  | 0.1 to 1 µM | 0.1 to 1 µM
C[C@@H](Nc1ncnc2[nH]c(-c3ccc(CNCc4ccc(/C=C/C(=O)NO)cc4)cc3)cc12)c1ccccc1 [Compound 45, (R,E)-N-hydroxy-3-(4-((4-(4-(1-phenylethylamino)-7H-pyrrolo[2,3-d]pyrimidin-6-yl)benzylamino)methyl)phenyl)acrylamide] |  | > 10 µM | > 10 µM | > 10 µM
C[C@@H](Nc1ncnc2[nH]c(-c3ccc(NC(=O)Nc4ccc(C(=O)NO)cc4)cc3)cc12)c1ccccc1 [Compound 46] | 0.1 to 1 µM |  |  | 
C[C@@H](Nc1ncnc2[nH]c(-c3ccc(NC(=O)Nc4ccc(/C=C/C(=O)NO)cc4)cc3)cc12)c1ccccc1 [Compound 47] | 1 to 10 µM |  |  | 
C[C@@H](Nc1ncnc2[nH]c(-c3ccc(CN4CCN(CCOCCCCC(=O)NO)CC4)cc3)cc12)c1ccccc1 [Compound 50, (R)—N-hydroxy-5-(2-(4-(4-(4-(1-phenylethylamino)-7H-pyrrolo[2,3-d]pyrimidin-6-yl)benzyl)piperazin-1-yl)ethoxy)pentanamide] | 1 to 10 µM |  |  | 
C[C@@H](Nc1ncnc2[nH]c(-c3ccc(CN4CCN(CCOCCCCCC(=O)NO)CC4)cc3)cc12)c1ccccc1 [Compound 51, (R)—N-hydroxy-6-(2-(4-(4-(4-(1-phenylethylamino)-7H-pyrrolo[2,3-d]pyrimidin-6-yl)benzyl)piperazin-1-yl)ethoxy)hexanamide] | < 0.1 µM |  |  | 
C[C@@H](Nc1ncnc2[nH]c(-c3ccc(CN4CCC(NCCCCCC(=O)NO)CC4)cc3)cc12)c1ccccc1 [Compound 55, (R)—N-hydroxy-6-(1-(4-(4-(1-phenylethylamino)-7H-pyrrolo[2,3-d]pyrimidin-6-yl)benzyl)piperidin-4-ylamino)hexanamide] | 1 to 10 µM |  |  | 
C[C@@H](Nc1ncnc2[nH]c(-c3ccc(CN4CCC(NCCCCCCC(=O)NO)CC4)cc3)cc12)c1ccccc1 [Compound 56, (R)—N-hydroxy-7-(1-(4-(4-(1-phenylethylamino)-7H-pyrrolo[2,3-d]pyrimidin-6-yl)benzyl)piperidin-4-ylamino)heptanamide] | 1 to 10 µM |  |  | 
C[C@@H](Nc1ncnc2[nH]c(-c3ccc(CN4CCC(NCCCCCCCC(=O)NO)CC4)cc3)cc12)c1ccccc1 [Compound 57, (R)—N-hydroxy-8-(1-(4-(4-(1-phenylethylamino)-7H-pyrrolo[2,3-d]pyrimidin-6-yl)benzyl)piperidin-4-ylamino)octanamide] | 0.1 to 1 µM |  | < 0.1 µM | 
C[C@@H](Nc1ncnc2c1cc(-c1ccc(C(=O)NCCNCCCCCCC(=O)NO)cc1)n2C)c1ccccc1 [Compound 58] | 0.1 to 1 µM |  | 0.1 to 1 µM | 1 to 10 µM
C[C@@H](Nc1ncnc2[nH]c(-c3ccc(OCCNCCCCCC(=O)NO)cc3)cc12)c1ccccc1 [Compound 59, (R)—N-hydroxy-6-(2-(4-(4-(1-phenylethylamino)-7H-pyrrolo[2,3-d]pyrimidin-6-yl)phenoxy)ethylamino)hexanamide] | 0.1 to 1 µM |  |  | 
C[C@@H](Nc1ncnc2[nH]c(-c3ccc(OCCNCCCCCCCC(=O)NO)cc3)cc12)c1ccccc1 [Compound 61, (R)—N-hydroxy-8-(2-(4-(4-(1-phenylethylamino)-7H-pyrrolo[2,3-d]pyrimidin-6-yl)phenoxy)ethylamino)octanamide] | 0.1 to 1 µM |  | < 0.1 µM | 
C[C@@H](Nc1ncnc2[nH]c(-c3ccc(OCCCNCCCCCC(=O)NO)cc3)cc12)c1ccccc1 [Compound 62] | 1 to 10 µM |  |  | 
C[C@@H](Nc1ncnc2c1cc(-c1ccc(CNCCN)cc1)n2CCCCCC(=O)NO)c1ccccc1 [Compound 63] | 0.1 to 1 µM |  |  | 
C[C@@H](Nc1ncnc2c1cc(-c1ccc(N)cc1)n2CCCCCC(=O)NO)c1ccccc1 [Compound 64] | 0.1 to 1 µM |  |  | 
C[C@@H](Nc1ncnc2c1cc(-c1ccc(N)cc1)n2CCCCCCC(=O)NO)c1ccccc1 [Compound 65] | < 0.1 µM |  |  | 
C[C@@H](Nc1ncnc2[nH]c(-c3ccc(NCCCCCC(=O)NO)cc3)cc12)c1ccccc1 [Compound 66, (R)—N-hydroxy-6-(4-(4-(1-phenylethylamino)-7H-pyrrolo[2,3-d]pyrimidin-6-yl)phenylamino)hexanamide] |  | < 0.1 µM | < 0.1 µM | < 0.1 µM
